Laboratory results reported in patent publication US20180273538A1, “PYRROLO[2,3-d]PYRIMIDINE DERIVATIVES, A PROCESS FOR THEIR PREPARATION AND PHARMACEUTICAL COMPOSITIONS CONTAINING THEM” (LES LABORATOIRES SERVIER, priority 2015, published 2018).

Target: T1, His-TEV-DYRK1A Kinase domain (aa127-485) (Homo sapiens, UniProt Q13627)
T1 construct: His-TEV-DYRK1A Kinase domain (aa127-485); His (N); TEV cleavage site (N)
Test: Kinase ADP assay (ADP Hunter Plus)
Type: biochemical

| Compound | IC50 [µM] |
| --- | --- |
| Cc1nc(N2CCC(C(F)(F)F)CC2)c2c(-c3ccnc(N)c3)c[nH]c2n1 [Example 105, 4-{2-methyl-4-[4-(trifluoromethyl)piperidin-1-yl]-7H-pyrrolo[2,3-d]pyrimidin-5-yl}pyridin-2-amine] | 0.121 |
| Cc1nc(N2CC3(CCCCC3)C2)c2c(-c3ccnc(N)c3)c[nH]c2n1 [Example 109, 4-[4-(2-azaspiro[3.5]non-2-yl)-2-methyl-7H-pyrrolo[2,3-d]pyrimidin-5-yl]pyridin-2-amine] | 0.524 |
| Cc1nc(N2CC[C@H]3CCCC[C@H]3C2)c2c(-c3ccnc(N)c3)c[nH]c2n1 [Example 110] | 0.048 |
| Cc1nc(N2CC[C@H]3CCCC[C@@H]3C2)c2c(-c3ccnc(N)c3)c[nH]c2n1 [Example 111, 4-{2-methyl-4-[(4aR,8aS)-octahydro-isoquinolin-2(1H)-yl]-7H-pyrrolo[2,3-d]pyrimidin-5-yl}pyridin-2-amine] | 0.013 |
| Cc1nc(NCC2COc3ccccc32)c2c(-c3ccnc(N)c3)c[nH]c2n1 (stereo not drawn) [Example 112, 5-(2-aminopyridin-4-yl)-N-(2,3-dihydro-1-benzofuran-3-ylmethyl)-2-methyl-7H-pyrrolo[2,3-d]pyrimidin-4-amine] | 0.234 |
| COc1cccnc1C(C)Nc1nc(C)nc2[nH]cc(-c3ccnc(N)c3)c12 (stereo not drawn) [Example 113, 5-(2-aminopyridin-4-yl)-N-[1-(3-methoxypyridin-2-yl)ethyl]-2-methyl-7H-pyrrolo[2,3-d]pyrimidin-4-amine] | 0.114 |
| Cc1nc(N(C)Cc2c(F)cccc2F)c2c(-c3ccnc(N)c3)c[nH]c2n1 [Example 120, 5-(2-aminopyridin-4-yl)-N-(2,6-diflurobenzyl)-N,2-dimethyl-7H-pyrrolo[2,3-d]pyrimidin-4-amine] | 0.115 |
| CCC(Nc1nc(C)nc2[nH]cc(-c3ccnc(N)c3)c12)c1ncccc1F (stereo not drawn) [Example 121, 5-(2-aminopyridin-4-yl)-N-[1-(3-fluoropyridin-2-yl)propyl]-2-methyl-7H-pyrrolo[2,3-d]pyrimidin-4-amine] | 0.066 |
| Cc1nc(N2C[C@@H](C)O[C@@H](C)C2)c2c(-c3cc(N)nc(N)c3)c[nH]c2n1 [Example 126, 4-{4-[(2R,6S)-2,6-dimethylmorpholin-4-yl]-2-methyl-7H-pyrrolo[2,3-d]pyrimidin-5-yl}pyridine-2,6-diamine + 4-{4-[(2S,6R)-2,6-dimethylmorpholin-4-yl]-2-methyl-7H-pyrrolo[2,3-d]pyrimidin-5-yl}pyridine-2,6-diamine] | 0.418 |
| Cc1nc(Nc2ccccc2)c2c(-c3ccnc(N)c3)c[nH]c2n1 [Example 129, 5-(2-aminopyridin-4-yl)-2-methyl-N-phenyl-7H-pyrrolo[2,3-d]pyrimidin-4-amine] | 0.072 |
| Cc1nc(Nc2ccccc2C(F)(F)F)c2c(-c3cc(N)nc(N)c3)c[nH]c2n1 [Example 131, 4-(2-methyl-4-{[2-(trifluoromethyl)phenyl]amino}-7H-pyrrolo[2,3-d]pyrimidin-5-yl)pyridine-2,6-diamine] | 0.6 |
| Cc1nc(N2CCOC(C)C2)c2c(-c3ccnc(N)c3)c[nH]c2n1 (stereo not drawn) [Example 137, 4-[2-methyl-4-(2-methylmorpholin-4-yl)-7H-pyrrolo[2,3-d]pyrimidin-5-yl]pyridin-2-amine] | 0.336 |
| COC1CCN(c2nc(C)nc3[nH]cc(-c4cc(N)nc(N)c4)c23)CC1 [Example 139, 4-[4-(4-methoxypiperidin-1-yl)-2-methyl-7H-pyrrolo[2,3-d]pyrimidin-5-yl]pyridine-2,6-diamine] | 0.883 |
| Cc1nc(N2CCn3ccnc3C2)c2c(-c3cc(N)nc(N)c3)c[nH]c2n1 [Example 141, 4-[4-(5,6-dihydroimidazo[1,2-a]pyrazin-7(8H)-yl)-2-methyl-7H-pyrrolo[2,3-d]pyrimidin-5-yl]pyridine-2,6-diamine] | 0.417 |
| Cc1nc(N2CCOC(C)C2)c2c(-c3cc(N)nc(N)c3)c[nH]c2n1 (stereo not drawn) [Example 143, 4-[2-methyl-4-(2-methylmorpholin-4-yl)-7H-pyrrolo[2,3-d]pyrimidin-5-yl]pyridine-2,6-diamine] | 1.06 |
| COc1cccc(C(F)(F)F)c1CNc1nc(C)nc2[nH]cc(-c3ccnc(C)c3)c12 [Example 146, N-[2-methoxy-6-(trifluoromethyl)benzyl]-2-methyl-5-(2-methylpyridin-4-yl)-7H-pyrrolo[2,3-d]pyrimidin-4-amine] | 0.172 |
| Nc1cc(-c2c[nH]c3nc(C4CC4)nc(NCc4c(F)cccc4F)c23)ccn1 [Example 147, 5-(2-aminopyridin-4-yl)-2-cyclopropyl-N-(2,6-difluorobenzyl)-7H-pyrrolo[2,3-d]pyrimidin-4-amine] | 0.17 |
| C=Cc1nc(NCc2c(F)cccc2F)c2c(-c3ccnc(N)c3)c[nH]c2n1 [Example 151, 5-(2-aminopyridin-4-yl)-N-(2,6-difluorobenzyl)-2-ethenyl-7H-pyrrolo[2,3-d]pyrimidin-4-amine] | 0.028 |
| C#Cc1nc(-c2ccc3c(c2)OCO3)c2c(-c3cc(N)nc(N)c3)c[nH]c2n1 [Example 155, 4-[4-(1,3-benzodioxol-5-yl)-2-ethynyl-7H-pyrrolo[2,3-d]pyrimidin-5-yl]pyridine-2,6-diamine] | 0.024 |
| C#Cc1nc(-c2ccc3c(c2)OCO3)c2c(-c3ccnc(N)c3)c[nH]c2n1 [Example 156, 4-[4-(1,3-benzodioxol-5-yl)-2-ethynyl-7H-pyrrolo[2,3-d]pyrimidin-5-yl]pyridin-2-amine] | 0.029 |
| Cc1nc(CCc2ccccc2)c2c(-c3ccnc(N)c3)c[nH]c2n1 [Example 160] | 0.184 |
| COc1cc(F)cc(-c2nc(C)nc3[nH]cc(-c4ccnc(N)c4)c23)c1 [Example 162, 4-[4-(3-fluoro-5-methoxyphenyl)-2-methyl-7H-pyrrolo[2,3-d]pyrimidin-5-yl]pyridin-2-amine] | 0.014 |
| Cc1nc(-c2ccc(CN3CCCC3)cc2)c2c(-c3ccnc(N)c3)c[nH]c2n1 [Example 165] | 0.301 |

Now from value to molecule:

| IC50 [µM] | Compound |
| --- | --- |
| 0.694 | Cc1nc(N2CCC2c2ccccc2)c2c(-c3ccnc(N)c3)c[nH]c2n1 (stereo not drawn) [Example 103, 4-[2-methyl-4-(2-phenylazetidin-1-yl)-7H-pyrrolo[2,3-d]pyrimadin-5-yl]pyridin-2-amine] |
| 0.666 | Cc1nc(N2CCCC2C(F)(F)F)c2c(-c3ccnc(N)c3)c[nH]c2n1 (stereo not drawn) [Example 107, 4-{2-methyl-4-[2-(trifluoromethyl)pyrrolidin-1-yl]-7H-pyrrolo[2,3-d]pyrimidin-5-yl}pyridin-2-amine] |
| 0.011 | Cc1nc(N[C@@H]2CCc3ccccc32)c2c(-c3cc(N)nc(N)c3)c[nH]c2n1 [Example 118, 4-{4-[(1R)-2,3-dihydro-1H-inden-1-ylamino]-2-methyl-7H-pyrrolo[2,3-d]pyrimidin-5-yl}pyridine-2,6-diamine] |
| 0.05 | Cc1nc(N[C@@H](C)c2ncccc2F)c2c(-c3ccnc(N)c3)c[nH]c2n1 [Example 122, 5-(2-aminopyridin-4-yl)-N-[(1S)-1-(3-fluoropyridin-2-yl)ethyl]-2-methyl-7H-pyrrolo[2,3-d]pyrimidin-4-amine] |
| 0.296 | Cc1nc(NCCc2ccccn2)c2c(-c3ccnc(N)c3)c[nH]c2n1 [Example 124, 5-(2-aminopyridin-4-yl)-2-methyl-N-[2-(pyridin-2-yl)ethyl]-7H-pyrrolo[2,3-d]pyrimidin-4-amine] |
| 0.26 | Cc1nc(Nc2ccccc2C(F)(F)F)c2c(-c3ccnc(N)c3)c[nH]c2n1 [Example 130, 5-(2-aminopyridin-4-yl)-2-methyl-N-[2-(trifluoromethyl)phenyl]-7H-pyrrolo[2,3-d]pyrimidin-4-amine] |
| 0.269 | COC1CCN(c2nc(C)nc3[nH]cc(-c4ccnc(N)c4)c23)CC1 [Example 133, 4-[4-(4-methoxypiperidin-1-yl)-2-methyl-7H-pyrrolo[2,3-d]pyrimidin-5-yl]pyridin-2-amine] |
| 0.848 | Cc1nc(N2CCOCC2)c2c(-c3ccnc(N)c3)c[nH]c2n1 [Example 134, 4-[2-methyl-4-(morpholin-4-yl)-7H-pyrrolo[2,3-d]pyrimidin-5-yl]pyridin-2-amine] |
| 0.091 | Cc1nc(N2CCn3ccnc3C2)c2c(-c3ccnc(N)c3)c[nH]c2n1 [Example 135, 4-[4-(5,6-dihydroimidazo[1,2-a]pyrazin-7(8H)-yl)-2-methyl-7H-pyrrolo[2,3-d]pyrimidin-5-yl]pyridin-2-amine] |
| 0.169 | Cc1nc(N2CCc3nccnc3C2)c2c(-c3ccnc(N)c3)c[nH]c2n1 [Example 136, 4-[4-(7,8-dihydropyrido[3,4-b]pyrazin-6(5H)-yl)-2-methyl-7H-pyrrolo[2,3-d]primidin-5-yl]pyridin-2-amine] |
| 0.407 | COC1CCCN(c2nc(C)nc3[nH]cc(-c4ccnc(N)c4)c23)C1 (stereo not drawn) [Example 138, 4-[4-(3-methoxypiperidin-1-yl)-2-methyl-7H-pyrrolo[2,3-d]pyrimidin-5-yl]pyridin-2-amine] |
| 1.22 | Cc1nc(N2CCOCC2)c2c(-c3cc(N)nc(N)c3)c[nH]c2n1 [Example 140, 4-[2-methyl-4-(morpholin-4-yl)-7H-pyrrolo[2,3-d]pyrimidin-5-yl]pyridine-2,6-diamine] |
| 0.512 | Cc1nc(N2CCc3nccnc3C2)c2c(-c3cc(N)nc(N)c3)c[nH]c2n1 [Example 142, 4-[4-(7,8-dihydropyrido[3,4-b]pyrazin-6(5H)-yl)-2-methyl-7H-pyrrolo[2,3-d]pyrimidin-5-yl]pyridine-2,6-diamine] |
| 0.545 | COC1CCCN(c2nc(C)nc3[nH]cc(-c4cc(N)nc(N)c4)c23)C1 (stereo not drawn) [Example 144, 4-[4-(3-methoxypiperidin-1-yl)-2-methyl-7H-pyrrolo[2,3-d]pyrimidin-5-yl]pyridine-2,6-diamine] |
| 0.734 | C=C(C)c1nc(NCc2c(F)cccc2F)c2c(-c3ccnc(N)c3)c[nH]c2n1 [Example 149, 5-(2-aminopyridin-4-yl)-N-(2,6-difluorobenzyl)-2-(prop-1-en-2-yl)-7H-pyrrolo[2,3-d]pyrimidin-4-amine] |
| 0.26 | N#Cc1nc(NCc2c(F)cccc2F)c2c(-c3ccnc(N)c3)c[nH]c2n1 [Example 157, 5-(2-aminopyridin-4-yl)-4-[(2,6-difluorobenzyl)amino]-7H-pyrrolo[2,3-d]pyrimidine-2-carbonitrile] |
